The values below come from patent publication US8772302B2, “GPR 119 agonists” (Cadila Healthcare Limited, priority 2009, dated 2014).

pEC50: −log10 of the molar value. Where two headings read alike, the source gives them in different places.

For assay [1], the target named is T1, recombinant human GPR 119 receptor (Homo sapiens, UniProt Q8TDV5).
T1 construct: expressed in transfected cells
T1 sequence (Q8TDV5 1-335): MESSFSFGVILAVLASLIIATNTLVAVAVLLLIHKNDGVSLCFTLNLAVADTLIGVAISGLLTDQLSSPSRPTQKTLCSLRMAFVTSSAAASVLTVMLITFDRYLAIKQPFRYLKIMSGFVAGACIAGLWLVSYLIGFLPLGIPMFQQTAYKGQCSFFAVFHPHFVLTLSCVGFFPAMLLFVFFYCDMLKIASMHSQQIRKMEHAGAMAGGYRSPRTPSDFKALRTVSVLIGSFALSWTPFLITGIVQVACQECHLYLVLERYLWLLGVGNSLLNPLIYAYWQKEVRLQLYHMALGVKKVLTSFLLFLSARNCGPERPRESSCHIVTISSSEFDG
Briefly: cAMP assay in stable cell line expressing recombinant human GPR 119 receptor. Conditions: intracellular cAMP. Type of assay: cell-based. The text has this: cAMP assay: A stable cell line expressing recombinant human GPR 119 receptor was established and used to investigate the efficacy of the compounds of the invention based on the intracellular levels of cyclic AMP (cAMP) using commercially available cAMP kits. Compounds of the invention produced a concentration dependent increase in cAMP level and EC50 values of representative compounds were provided in table 1.
(In general: Changes in cAMP serve as a functional read-out for many G protein-coupled receptors.)

A further assay has as its system Sprague Dawley rats. The assay is described as follows: Feed intake in Sprague Dawley rats. The assay is classed as in vivo, rat. Conditions: Rattus norvegicus, cumulative feed intake vs vehicle; for inhibition in vivo at 25 mg/kg: ip, intraperitoneal; for inhibition in vivo at 50 mg/kg: oral. The text has this:
In Vivo Efficacy Studies: Feed Intake in Sprague Dawley Rats:
Sprague Dawley rats of 6-8 week age are used for this experiment they are kept for acclimatization in reversed light/dark cycle for 15 days. Animals will have free access to a standard chow diet and water during acclimatization period. After 15 days reversed light/dark cycle acclimatization animals are trained for fasting induced feed intake for 5 days till they show consistent feed intake. Grouping was done based on the monitored feed intake during the training days. On treatment day each group of animals are dosed with test compound or vehicle by appropriate routes of administration (orally or intraperitoneally). Exactly 30 min. after treatment, measured amount of standard chow diet is provided and recorded as O-min feed offered. Then subsequently 2, 4, 6 and 24 hour after O-min, feed intake is measured and the cumulative feed intakes are calculated. The change in cumulative feed intake as compared to vehicle treated control at each time point is calculated for test compound.

Another assay relates to C57/BL6 mice. Briefly: Oral glucose tolerance test (OGTT) in C57/BL6 mice. To be noted: Mus musculus, 2 h, serum glucose AUC, single oral dose, glucose load 3 gm/kg, read-out: % reduction in AUC at 50 mg/kg. Type of assay: in vivo, mouse. The procedure: Oral Glucose Tolerance Tests (OGTT) in C57/BL6 Mice:
C57/BL6 mice of 6-8 week age are used for this experiment. Animals are grouped based on non-fasting serum glucose levels and kept on fasting for overnight (day before OGTT). On the experiment day, […], 30 min post dosing animals are bled for basal glucose level estimation and at the same time glucose load (3 gm/kg) will be administered per orally. Blood is collected at time points corresponding to 20, 40, 60 and 120 min after glucose load administration. Serum is separated for determination of glucose levels and change in area under curve for glucose is calculated and provided in table 4 as % reduction in AUC.

The mark [2] stands for this setting: 2 hour, read-out: % reduction in food in take, 2 hour.
The mark [3] stands for this setting: 4 hour, read-out: % reduction in food in take, 4 hour.
Where [4] appears, read: 6 hour, read-out: % reduction in food in take, 6 hour.
[5] abbreviates: 24 hour, read-out: % reduction in food in take, 24 hour.

In general, pEC50 refers to the negative decadic logarithm of the EC50, by convention in mol/L. Consider `CC(C)c1noc(C2CCN(c3ncnc(Oc4ccc([C@H]5CO[S@@](=O)OC5)cc4)c3[N+](=O)[O-])CC2)n1` [Example 1, cis-5-(4-((6-(4-(3-isopropyl-1,2,4-oxadiazol-5-yl)piperidin-1-yl)-5-nitropyrimidin-4-yl)oxy)phenyl)-1,3,2-dioxathiane 2-oxide], for which the negative logarithm of the EC50 (pEC50) in assay [1] is 7.51. Besides, the inhibition in vivo at 25 mg/kg in the assay with Sprague Dawley rats (setting [2]) stood at 45%; with Sprague Dawley rats (setting [3]), 24%; in the assay with Sprague Dawley rats (setting [4]), 8.5%; in the assay with Sprague Dawley rats (setting [5]), 4%. For the same compound, the inhibition in vivo at 50 mg/kg in the assay on C57/BL6 mice was 23%.
Turning to `Cc1c(Oc2ccc([C@H]3CO[S@@](=O)OC3)cc2)ncnc1OC1CCN(c2nc(C(C)C)no2)CC1` [Example 3, cis-5-(4-((6-((1-(3-isopropyl-1,2,4-oxadiazol-5-yl)piperidin-4-yl)oxy)-5-methylpyrimidin-4-yl)oxy)phenyl)-1,3,2-dioxathiane 2-oxide], the pEC50 in assay [1] was 7.89. The inhibition in vivo at 25 mg/kg in the assay with Sprague Dawley rats (setting [2]) came to 34%; with Sprague Dawley rats (setting [3]), 25%; with Sprague Dawley rats (setting [4]), 25%; with Sprague Dawley rats (setting [5]), 17%. For the same compound, the inhibition in vivo at 50 mg/kg in the assay on C57/BL6 mice was determined as 23%.
In the case of `Cc1c(Oc2ccc([C@H]3CO[S@](=O)OC3)cc2)ncnc1OC1CCN(c2nc(C(C)C)no2)CC1` [Example 4, trans-5-(4-((6-((1-(3-isopropyl-1,2,4-oxadiazol-5-yl)piperidin-4-yl)oxy)-5-methylpyrimidin-4-yl)oxy)phenyl)-1,3,2-dioxathiane 2-oxide], the pEC50 in assay [1] is 7.96. Also, the inhibition in vivo at 25 mg/kg with Sprague Dawley rats (setting [2]) came out at 40%; in the assay on Sprague Dawley rats (setting [3]) it was 33%; in the assay with Sprague Dawley rats (setting [4]) it was 21%. Further, the inhibition in vivo at 50 mg/kg is 30% in the assay with Sprague Dawley rats (setting [2]); 24% in the assay with Sprague Dawley rats (setting [3]); 9.5% in the assay on Sprague Dawley rats (setting [4]); 6% with Sprague Dawley rats (setting [5]); 31% in the assay with C57/BL6 mice.
Regarding `CCc1cnc(N2CCC(Oc3ncnc(Oc4ccc([C@H]5CO[S@@](=O)OC5)cc4)c3C)CC2)nc1` [Example 9, cis-5-(4-((6-((1-(5-ethylpyrimidin-2-yl)piperidin-4-yl)oxy)-5-methylpyrimidin-4-yl)oxy)phenyl)-1,3,2-dioxathiane 2-oxide], in assay [1], the pEC50 was 7.92. Further, the inhibition in vivo at 25 mg/kg in the assay on Sprague Dawley rats (setting [2]) amounted to 44%; in the assay with Sprague Dawley rats (setting [3]) it was 37%; in the assay on Sprague Dawley rats (setting [4]) it was 30%; in the assay on Sprague Dawley rats (setting [5]) it was 24%. In addition, the inhibition in vivo at 50 mg/kg came out at 25% with Sprague Dawley rats (setting [2]); 12% with Sprague Dawley rats (setting [3]); 6% with Sprague Dawley rats (setting [4]); 2% in the assay on Sprague Dawley rats (setting [5]); 31% with C57/BL6 mice.
With `CCc1cnc(N2CCC(Oc3ncnc(Oc4ccc([C@H]5CO[S@](=O)OC5)cc4)c3C)CC2)nc1` [Example 10, trans-5-(4-((6-((1-(5-ethylpyrimidin-2-yl)piperidin-4-yl)oxy)-5-methylpyrimidin-4-yl)oxy)phenyl)-1,3,2-dioxathiane 2-oxide], the pEC50 in assay [1] is 7.13. In addition, the inhibition in vivo at 50 mg/kg turned out to be 36% in the assay with Sprague Dawley rats (setting [2]); 29% in the assay on Sprague Dawley rats (setting [3]); 15% in the assay with Sprague Dawley rats (setting [4]); 15% with Sprague Dawley rats (setting [5]); 29% with C57/BL6 mice.
For `Cc1c(Oc2ccc([C@H]3CO[S@](=O)OC3)cc2)ncnc1OC1CCN(C(=O)OC(C)(C)C)CC1` [Example 16, trans-tert-butyl 4-((5-methyl-6-(4-(2-oxido-1,3,2-dioxathian-5-yl)phenoxy)pyrimidin-4-yl)oxy)piperidine-1-carboxylate], the pEC50 in assay [1] is 7.82. In addition, the inhibition in vivo at 25 mg/kg turned out to be 21% with Sprague Dawley rats (setting [2]), 27% in the assay on Sprague Dawley rats (setting [3]) and 10% in the assay with Sprague Dawley rats (setting [4]). Also, the inhibition in vivo at 50 mg/kg in the assay on C57/BL6 mice is 34%.
With `Cc1c(Oc2ccc([C@H]3CO[S@@](=O)OC3)cc2)ncnc1OC1CCN(C(=O)OCC(C)C)CC1` [Example 27, cis-isobutyl 4-((5-methyl-6-(4-(2-oxido-1,3,2-dioxathian-5-yl)phenoxy)pyrimidin-4-yl)oxy)piperidine-1-carboxylate], the pEC50 in assay [1] was 7.57. Besides, the inhibition in vivo at 25 mg/kg with Sprague Dawley rats (setting [2]) turned out to be 35%; in the assay with Sprague Dawley rats (setting [3]), 35%; with Sprague Dawley rats (setting [4]), 31%; in the assay on Sprague Dawley rats (setting [5]) it was 17%. In addition, the inhibition in vivo at 50 mg/kg amounted to 23% in the assay with Sprague Dawley rats (setting [2]); 20% in the assay on Sprague Dawley rats (setting [3]); 23% in the assay on Sprague Dawley rats (setting [4]); 5% in the assay on Sprague Dawley rats (setting [5]); 30% in the assay on C57/BL6 mice.
On to `Cc1c(Oc2ccc([C@H]3CO[S@](=O)OC3)cc2)ncnc1OC1CCN(C(=O)OCC(C)C)CC1` [Example 28, trans-isobutyl 4-((5-methyl-6-(4-(2-oxido-1,3,2-dioxathian-5-yl)phenoxy)pyrimidin-4-yl)oxy)piperidine-1-carboxylate], for which the pEC50 in assay [1] is 7.24. Also, the inhibition in vivo at 25 mg/kg in the assay on Sprague Dawley rats (setting [2]) was 67%; in the assay on Sprague Dawley rats (setting [3]) it was 59%; in the assay with Sprague Dawley rats (setting [4]) it was 40%; in the assay with Sprague Dawley rats (setting [5]), 24%. In addition, the inhibition in vivo at 50 mg/kg with Sprague Dawley rats (setting [2]) is 24%; in the assay on Sprague Dawley rats (setting [3]) it was 19%; with Sprague Dawley rats (setting [4]), 9%; in the assay with Sprague Dawley rats (setting [5]), 2%; with C57/BL6 mice, 40%.
For `CCc1cnc(N2CCC(Oc3ncnc(Oc4ccc(C[C@H]5CO[S@](=O)OC5)cc4)c3C)CC2)nc1` [Example 32, trans-5-(4-((6-((1-(5-ethylpyrimidin-2-yl)piperidin-4-yl)oxy)-5-methylpyrimidin-4-yl)oxy)benzyl)-1,3,2-dioxathiane 2-oxide], in assay [1], the pEC50 is 7.07. The inhibition in vivo at 25 mg/kg in the assay on Sprague Dawley rats (setting [2]) was found to be 50%; with Sprague Dawley rats (setting [3]) it was 37%; with Sprague Dawley rats (setting [4]), 32%; in the assay on Sprague Dawley rats (setting [5]), 18%. In addition, in the assay on C57/BL6 mice, the inhibition in vivo at 50 mg/kg stood at 41%.
`CCOC(=O)N1CCC(Oc2ncnc(Oc3ccc([C@H]4CO[S@@](=O)OC4)cc3)c2C)CC1` [Example 33, cis-ethyl 4-((5-methyl-6-(4-(2-oxido-1,3,2-dioxathian-5-yl)phenoxy)pyrimidin-4-yl)oxy)piperidine-1-carboxylate]: in assay [1], the pEC50 is 7.07. Moreover, the inhibition in vivo at 25 mg/kg with Sprague Dawley rats (setting [2]) stood at 70%; in the assay with Sprague Dawley rats (setting [3]), 44%; in the assay on Sprague Dawley rats (setting [4]), 24%; in the assay on Sprague Dawley rats (setting [5]), 21%. In the assay on C57/BL6 mice, the inhibition in vivo at 50 mg/kg is 30%.
Regarding `CCOC(=O)N1CCC(Oc2ncnc(Oc3ccc([C@H]4CO[S@](=O)OC4)cc3)c2C)CC1` [Example 34, trans-ethyl 4-((5-methyl-6-(4-(2-oxido-1,3,2-dioxathian-5-yl)phenoxy)pyrimidin-4-yl)oxy)piperidine-1-carboxylate], in assay [1], the pEC50 was 7.03. The inhibition in vivo at 25 mg/kg in the assay on Sprague Dawley rats (setting [2]) was determined as 45%; in the assay on Sprague Dawley rats (setting [3]) it was 30%; in the assay on Sprague Dawley rats (setting [4]), 19%; in the assay on Sprague Dawley rats (setting [5]), 10%. The inhibition in vivo at 50 mg/kg with C57/BL6 mice stood at 27%.
